Reference: ChEMBL document CHEMBL5154653, “The discovery of 1, 3-diamino-7H-pyrrol[3, 2-f]quinazoline compounds as potent antimicrobial antifolates” (Eur J Med Chem, 2022)

Assays:
Escherichia coli [1] = experiment: Inhibition of Escherichia coli C-terminal hexahistidine tagged DHFR at 5 uM incubated for 5 mins in presence of NADPH by measuring oxidation of NADPH to NADP+
Escherichia coli [2] = experiment: Antibacterial activity against Escherichia coli ATCC 25922 assessed as reduction in microbial growth after 16 to 18 hrs by microbroth dilution method; assay type: functional; conditions: time 16-18 hrs
Klebsiella pneumoniae [3] = experiment: Antibacterial activity against Klebsiella pneumoniae ATCC 700603 assessed as reduction in microbial growth after 16 to 18 hrs by microbroth dilution method; assay type: functional; conditions: time 16-18 hrs
Acinetobacter baumannii = experiment: Antibacterial activity against Acinetobacter baumannii ATCC 19606 assessed as reduction in microbial growth after 16 to 18 hrs by microbroth dilution method; assay type: functional; conditions: time 16-18 hrs
Klebsiella pneumoniae [4] = experiment: Antibacterial activity against ESBL-producing Klebsiella pneumoniae CCPM(A)-081514 assessed as reduction in microbial growth after 16 to 18 hrs by microbroth dilution method; assay type: functional; conditions: time 16-18 hrs

Row | SMILES | inhibition (Escherichia coli [1]) | MIC (Escherichia coli [2]) | MIC (Klebsiella pneumoniae [3]) | MIC (Acinetobacter baumannii) | MIC (Klebsiella pneumoniae [4])
1 | Nc1nc(N)c2c(ccc3c2ccn3Cc2nnc(-c3ccc(C(F)(F)F)cc3)o2)n1 | 13.3% | 16 µg/mL | 32 µg/mL | 16 µg/mL | –
2 | Nc1nc(N)c2c(ccc3c2ccn3CC2CC2)n1 | 20.9% | 0.25 µg/mL | 0.5 µg/mL | 4 µg/mL | –
3 | Cc1cc(NS(=O)(=O)c2ccc(N)cc2)no1 [SULFAMETHOXAZOLE] | – | 256 µg/mL | – | – | 2050 µg/mL
